# Measurements: patent US7923465B2, “Cannabinoid receptor ligands, pharmaceutical compositions containing them, and process for their preparation” (priority 2005, dated 2011)
# pIC50: −log10 of the molar value. Like-named read-outs stand apart in the source and are kept apart here.
# What was measured:
# [1] = target: T1, hCB2 (Homo sapiens, UniProt P34972); experiment: In vitro binding assay using hCB2-CHO membranes, [3H]-CP-55,940 displacement (Protocol IV); design: expressed in transfected cells; host or cells: CHO (hCB2-CHO, generated in-house); conditions: for % Displacement Protocol IV: hCB2-CHO membranes, [3H]-CP-55,940 displacement
# Summary of the method: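 Displacement of [3H]-CP-55,940 (0.75 nM) from membranes of CHO cells expressing human CB2 (25-50 μg) was measured in Tris-BSA buffer pH 7.4 with 5 mM MgCl2, 1 mM EDTA, 0.1% BSA, 1 h at 30 °C. Test compounds were at 300 nM final; nonspecific binding defined with 0.5 μM CP-55,940. Values are % displacement of specific binding.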
# [2] = target: T2, CB1 (Rattus norvegicus, UniProt P20272); experiment: Rat CB1 receptor binding using brain membrane, [3H]SR141716A displacement (Protocol I); design: CB1 receptor present in a rat brain membrane preparation; from tissue; host or cells: rat brain membrane; inhibition: dose or concentration left out as unconfirmed; conditions: for inhibition: 1 h
# [3] = target: T1, hCB2; experiment: Agonism of CB2 receptors expressed in CHO cells, forskolin cAMP assay (Protocol IX.2); assay type: cell-based; design: expressed in transfected cells; host or cells: CHO (h-CB2/CHO, G418-selected)
# Experimental: (§1) IX. Assay for Determining Agonist and Antagonist Activity to CB1 and CB2 Receptors
# 2. Agonism of CB1/CB2 Receptors Expressed in CHO Cells
# h-CB1/CHO or h-CB2/CHO cells were grown in HAM's F12 DMEM medium (Sigma) with 10% FBS (Hyclone), 1% penicillin-streptomycin solution and 400 μg/ml of G418 (Sigma). 5000 cells were seeded per well in a 96 well plate and incubated for 24 hours at 37° C. in 5% CO2. On the day of assay, cells were washed with warm Krebs Buffer containing 0.1% fatty acid free (FAF) BSA (Sigma) and re-suspended in the same buffer containing 1 mM IBMX. Test compound or CP 55,940 as a reference compound (30 nM final concentration for CB1 testing and 10 μM of the same for CB2 testing) diluted in FFB+IBMX+Krebs buffer was added to the cells followed by forskolin addition (10 uM final concentration) and incubated for 30 minutes at room temperature. At the end of incubation, cells were lysed using lysis reagent from the cAMP estimation kit and cAMP was quantitated by chemiluminescence method described in the manufacturer's instructions (DiscoveRX). EC50 values were calculated from dose response curves by nonlinear regression analysis using PRISM software.
# [4] = target: T2, CB1; experiment: GTPγS binding assay, CB1 functional assay in rat cerebellar membrane (Protocol VIII); assay type: biochemical; design: 10 μg rat cerebellum membrane; from tissue; host or cells: rat cerebellum membrane, prepared in-house; conditions: for activation at 1 µM: 1 h, read-out: Per Se % Stimulation; for activation at 1 µM / Per Se % Stimulation: GTPγS binding over basal, rat cerebellar membrane, tested at 1 uM; for inhibition at 1 µM / % Inhibition of WIN-55212-2 induced stimulation: GTPγS binding, tested at 1 uM in presence of 1 μM WIN 55,212-2; for inhibition at 1 µM: read-out: % Inhibition of WIN-55212-2 induced stimulation
# Summary of the method: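 Rat cerebellar membranes (10 μg) incubated 1 h at 30 °C with 0.2 nM [35S]GTPγS, 50 μM GDP, and compound at 1 μM or 300 nM, alone or with 1 μM WIN 55,212-2, in Tris/MgCl2/EGTA/NaCl pH 7.4. Filter-bound radioactivity counted; percent stimulation calculated against basal specific binding (nonspecific defined by 10 μM GTPγS).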
# [5] = target: T3, hCB1 (Homo sapiens, UniProt P21554); experiment: Antagonism of CB1 receptors expressed in CHO cells, cAMP assay against CP 55,940 (Protocol IX.1); assay type: cell-based; design: expressed in transfected cells; host or cells: CHO (h-CB1/CHO, G418-selected); conditions: h-CB1/CHO cells, cAMP, vs 30 nM CP 55,940; for inhibition at 10 µM: read-out: hCB1 Antagonism
# Experimental: as §1
# 1. Antagonism of CB1/CB2 Receptors Expressed in CHO Cells.
# h-CB1/CHO or h-CB2/CHO cells were grown in HAM's F12 DMEM medium (Sigma) with 10% FBS (Hyclone), 1% penicillin-streptomycin solution and 400 μg/ml of G418 (Sigma). 5000 cells were seeded per well in a 96 well plate and incubated for 24 hours at 37° C. in 5% CO2. On the day of assay, cells were washed with warm Krebs buffer containing 0.1% fatty acid free (FAF) BSA (Sigma) and re-suspended in the same buffer containing 1 mM IBMX. […] At the end of incubation, cells were lysed using lysis reagent from the cAMP estimation kit and cAMP was quantitated by the chemiluminescence method described in the manufacturer's instructions (DiscoveRX). EC50 values were calculated from dose response curves by nonlinear regression analysis using PRISM software.
# [6] = target: T3, hCB1; experiment: In vitro binding assay using hCB1-CHO membranes, [3H]-CP-55,940 displacement (Protocol II); design: expressed in transfected cells; host or cells: CHO (hCB1-CHO, generated in-house)
# Experimental: II. Protocol for In Vitro Assay Using hCB1-CHO Membranes
# The reaction was set up in a total volume of 200 μl in PEI (Poly(ethyleneimine)) (0.2%) precoated Millipore GFB (Glass Fibre-B) filter plates. 1 mM stocks of test compounds were prepared in DMSO and tested at a final concentration of 300 nM. The non-specific binding was determined by 0.5 μM CP-55, 940. […] The assay mixture (with or without the test compound) was incubated at 37° C. for 1 hour. The reaction was stopped by rapid filtration under vacuum and the radioactivity on the filters was measured by liquid scintillation counting.
# [7] = read-out: % Displacement Protocol I, rat brain membrane, [3H]SR141716A displacement
# [8] = rat brain membrane, [3H]SR141716A displacement
# [9] = rat brain membrane, [3H]SR141716A displacement, read-out: % Displacement Protocol I
# T2 sequence (P20272 whole entry): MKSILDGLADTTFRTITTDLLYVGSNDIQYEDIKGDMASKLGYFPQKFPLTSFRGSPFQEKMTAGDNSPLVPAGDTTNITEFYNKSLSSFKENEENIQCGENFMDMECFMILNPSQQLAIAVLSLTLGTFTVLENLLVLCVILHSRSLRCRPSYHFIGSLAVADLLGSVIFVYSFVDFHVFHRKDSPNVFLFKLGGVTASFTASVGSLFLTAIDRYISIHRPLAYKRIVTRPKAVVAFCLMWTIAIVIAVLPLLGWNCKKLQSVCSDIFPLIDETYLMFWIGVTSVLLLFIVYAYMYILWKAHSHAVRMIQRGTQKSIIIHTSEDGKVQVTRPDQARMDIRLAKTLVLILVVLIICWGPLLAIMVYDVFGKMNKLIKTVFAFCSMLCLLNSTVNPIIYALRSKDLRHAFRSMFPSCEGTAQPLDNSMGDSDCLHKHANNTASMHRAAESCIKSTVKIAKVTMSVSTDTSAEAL
# T1 sequence (P34972 whole entry): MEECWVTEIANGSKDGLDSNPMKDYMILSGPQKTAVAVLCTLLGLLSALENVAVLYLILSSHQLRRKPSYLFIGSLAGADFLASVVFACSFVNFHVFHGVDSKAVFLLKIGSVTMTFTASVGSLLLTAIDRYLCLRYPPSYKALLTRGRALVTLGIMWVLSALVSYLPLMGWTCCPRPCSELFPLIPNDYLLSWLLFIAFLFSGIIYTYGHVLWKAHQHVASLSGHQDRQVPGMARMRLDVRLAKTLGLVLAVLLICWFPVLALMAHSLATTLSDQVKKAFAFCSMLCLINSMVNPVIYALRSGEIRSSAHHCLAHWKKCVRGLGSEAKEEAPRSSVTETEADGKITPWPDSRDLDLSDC
# T3 sequence (P21554 whole entry): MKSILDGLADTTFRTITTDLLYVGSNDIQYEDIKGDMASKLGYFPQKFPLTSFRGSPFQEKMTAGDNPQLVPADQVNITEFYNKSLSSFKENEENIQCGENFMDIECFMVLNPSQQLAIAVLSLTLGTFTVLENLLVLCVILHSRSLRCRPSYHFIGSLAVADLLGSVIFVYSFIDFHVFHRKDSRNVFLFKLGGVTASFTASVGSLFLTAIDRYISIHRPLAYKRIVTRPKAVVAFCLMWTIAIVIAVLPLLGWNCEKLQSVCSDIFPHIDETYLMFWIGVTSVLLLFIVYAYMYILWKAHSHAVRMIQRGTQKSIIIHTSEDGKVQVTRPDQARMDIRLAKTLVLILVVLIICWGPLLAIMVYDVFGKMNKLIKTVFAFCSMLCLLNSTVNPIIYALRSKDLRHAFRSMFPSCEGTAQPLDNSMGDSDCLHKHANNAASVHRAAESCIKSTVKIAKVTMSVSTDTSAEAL
SMILES,melting point [°C],% Displacement Protocol IV [1] [%],% Displacement Protocol II [6] [%],inhibition at 10 µM ([5]; at 10 uM) [%],Per Se % Stimulation [4] [%],% Inhibition of WIN-55212-2 induced stimulation [4] [%],"% Displacement Protocol I [2, 8] [%]","inhibition [2, 9] [%]",other results
"O=C(NC1CCCCC1)c1nn(-c2ccc(Cl)cc2)c2c1C1CC3CC(C1)CC2C3 [Example 106, N(7)-Cyclohexyl-5-(4-chlorophenyl)-5,6-diazatetracyclo[7.3.1.1^3,11.0^4,8]tetradeca-4(8),6-diene-7-carboxamide]",162,–,–,–,–,–,–,–,"inhibition at 0.3 µM ([1]; 1 h, read-out: % Displacement Protocol IV): 75.1%; inhibition [2, 7]: 78.6%; hCB2 Agonism ([3]; concentration not given): 0%; activation at 1 µM [4]: -10%; inhibition at 1 µM [4]: 65.3%"
"O=C(NC12CC3CC(CC(C3)C1)C2)c1nn(-c2ccc(Cl)cc2)c2c1C1CC3CC(C1)CC2C3 [Example 109, N(7)-(Adamantan-1-yl)-5-(4-chlorophenyl)-5,6-diazatetracyclo[7.3.1.1^3,11.0^4,8]tetradeca-4(8)-6-diene-7-carboxamide]",–,63.05,8.36,–,–,–,–,–,hCB1 Antagonism ([5]; at 10 uM): 61.64% at
"Cl.O=C(NNc1ccccc1)c1nn(-c2ccc(Cl)cc2)c2c1C1CC3CC(C1)CC2C3 [Example 122, N(7)-(N′-phenylamino)-5-(4-chlorophenyl)-5,6-diazatetracyclo[7.3.1.1^3,11.0^4,8]tetradeca-4(8),6-diene-7-carboxamide hydrochloride]",–,–,–,40.7,1.2,59.3,–,–,"inhibition [2, 7]: 66.4%"
"O=C(NCc1ccccc1)c1nn(-c2ccccc2)c2c1C1CC3CC(C1)CC2C3 [Example 170, N(7)-Benzyl-5-phenyl-5,6-diazatetracyclo[7.3.1.1^3,11.0^4,8]tetradeca-4(8)-6-diene-7-carboxamide]",–,27.16,29.49,–,17.5,80.3,40.0,–,–
"O=C(NCc1ccccc1)c1nn(-c2ccc(Cl)cc2Cl)c2c1C1CC3CC(C1)CC2C3 [Example 179, N(7)-Benzyl-5-(2′,4′-dichlorophenyl)-5,6-diazatetracyclo[7.3.1.1^3,11.0^4,8]tetradeca-4(8)-6-diene-7-carboxamide]",–,18.21,30.88,–,7.8,89.7,48,–,–
"O=C(NC1CCCCC1)c1nn(-c2ccccc2Cl)c2c1C1CC3CC(C1)CC2C3 [Example 183, N(7)-cyclohexyl-5-(2-chlorophenyl)-5,6-diazatetracyclo[7.3.1.1^3,11.0^4,8]tetradeca-4(8)-6-diene-7-carboxamide]",–,18.23,17.24,–,13.0,72.5,45.9,–,–
"O=C(NN1CCCCC1)c1nn(-c2ccccc2Cl)c2c1C1CC3CC(C1)CC2C3 [Example 184, N(7)-piperidino-5-(2′-chlorophenyl)-5,6-diazatetracyclo[7.3.1.1^3,11.0^4,8]tetradeca-4(8)-6-diene-7-carboxamide]",–,8.76,3.24,–,9.5,75.9,41,–,–
"O=C(NC1CCCC1)c1nn(-c2ccc(Cl)cc2)c2c1C1CCC2C1 (stereo not drawn) [Example 212, N(3)-Cyclopentyl-1-(4-chlorophenyl)-4,5,6,7-tetrahydro-1H-4,7-methano-indazole-3-carboxamide]",176 to 178,–,–,39.1,–,–,–,–,"inhibition [2, 7]: 68.4%; activation at 1 µM [4]: -13.8%; inhibition at 1 µM [4]: 97.4%"
"CC(C)(C)c1ccc(NC(=O)c2nn(-c3ccc(Cl)cc3)c3c2C2CCC3C2)cc1 (stereo not drawn) [Example 219, N(3)-(4-tert-Butylphenyl)-1-(4-chlorophenyl)-4,5,6,7-tetrahydro-1H-4,7-methano-indazole-3-carboxamide]",76 to 78,–,–,33.4,–,–,–,33.7,–
"O=C(NCc1ccc(F)cc1)c1nn(-c2ccc(Cl)cc2)c2c1C1CCC2C1 (stereo not drawn) [Example 226, N(3)-(4-Fluorobenzyl)-1-(4-chlorophenyl)-4,5,6,7-tetrahydro-1H-4,7-methano-indazole-3-carboxamide]",104 to 107,–,–,71,–,–,–,38.4,–
"O=C(NNc1ccc(F)cc1F)c1nn(-c2ccc(Cl)cc2)c2c1C1CCC2C1 (stereo not drawn) [Example 235, N(3)-[(2,4-Difluorophenyl)amino]-1-(4-chlorophenyl)-4,5,6,7-tetrahydro-1H-4,7-methano-indazole-3-carboxamide]",118 to 120,–,–,59.9,–,–,–,46.8,–
"O=C(NN1CCCCC1)c1nn(-c2ccc(Cl)cc2Cl)c2c1C1CCC2C1 (stereo not drawn) [Example 268, N(5)-piperidino-3-(2′,4′-dichlorophenyl)-3,4-diazatricyclo[5.2.1.0^2,6]deca-2(6),4-diene-5-carboxamide]",–,–,–,–,–,–,–,41,inhibition at 1 µM ([5]; at 1 uM): 50.9%; activation at 1 µM [4]: 29.1%; inhibition at 1 µM [4]: 55.3%
"CC(C)(C)NC(=O)c1nn(-c2ccc(F)cc2F)c2c1C1CCC2(C)C1(C)C (stereo not drawn) [Example 408, N(3)-tert-Butyl-1-(2,4-difluorophenyl)-7,8,8-trim ethyl-4,5,6,7-tetrahydro-1H-methano-indazole-3-carboxamide]",–,61.92,24.93,–,–,–,–,–,"pIC50 ([3]; h-CB2/CHO cells, cAMP, read-out: hCB2 Agonism IC50): 7.79"
